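Compound exposure: 48 hours, 5 concentrations, 96-well plates. GI50 marks 50% less growth. TGI: concentration producing complete growth inhibition.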
Assays:
Assay in all cases: inhibition of tumour cell growth, NCI panel, 48 h
DU-145 prostate = test system: DU-145 prostate
HCC-2998 colon = test system: HCC-2998 colon
MDA-MB-231 breast = test system: MDA-MB-231 breast
NCI-H460 lung = test system: NCI-H460 lung
OVCAR-5 ovarian = test system: OVCAR-5 ovarian
SF-539 CNS = test system: SF-539 CNS
SK-MEL-28 melanoma = test system: SK-MEL-28 melanoma
SN12C renal = test system: SN12C renal
SW-620 colon = test system: SW-620 colon
RXF 393 renal = test system: RXF 393 renal

Row | SMILES | GI50 (DU-145 prostate) [µM] | TGI (DU-145 prostate) [µM] | GI50 (HCC-2998 colon) [µM] | TGI (HCC-2998 colon) [µM] | GI50 (MDA-MB-231 breast) [µM] | TGI (MDA-MB-231 breast) [µM] | GI50 (NCI-H460 lung) [µM] | TGI (NCI-H460 lung) [µM] | GI50 (OVCAR-5 ovarian) [µM] | TGI (OVCAR-5 ovarian) [µM] | GI50 (SF-539 CNS) [µM] | TGI (SF-539 CNS) [µM] | GI50 (SK-MEL-28 melanoma) [µM] | TGI (SK-MEL-28 melanoma) [µM] | GI50 (SN12C renal) [µM] | TGI (SN12C renal) [µM] | GI50 (SW-620 colon) [µM] | TGI (SW-620 colon) [µM] | TGI (RXF 393 renal) [µM] | GI50 (RXF 393 renal) [µM]
1 | CCSc1nc(N)c(C#N)c(-c2ccc(OC)c(OC)c2)c1C#N | 30.7 | > 50 | 37.9 | > 50 | 11.7 | 48.9 | 13.8 | 44.1 | > 50 | > 50 | 19 | 40.3 | > 50 | > 50 | 15.1 | > 50 | 25.4 | > 50 |  | 
2 | NC(CCSCCF)C(=O)O (stereo not given) |  |  |  |  |  |  |  | > 100 |  | > 100 |  | > 100 |  | > 100 |  | > 100 |  | > 100 |  | 
3 | COc1ccc(OC)c(-c2nc3sc(C)cn3c2/C=C2\C(=O)N(C)c3ccccc32)c1 | 29.2 | 81.8 |  |  | 15.3 | 66.3 | 18.7 | 44.2 | 44.9 | > 100 | 21.8 | 42.5 | 19.8 | 43.6 | 20.6 | 50.7 | 35.6 | > 100 |  | 
4 | Cc1cccc(/C=N/N=C(\N)NO)n1 |  |  |  | > 100 |  |  |  | > 100 |  |  |  | > 100 |  | > 100 |  | > 100 |  | > 100 | > 100 | 
5 | CC(C(=O)c1ccc(O)cc1)C1(O)C(=O)Nc2c(Cl)cc(Cl)cc21 (stereo not given) |  |  |  | > 100 |  |  |  | > 100 |  | > 100 |  | > 100 |  | 78.1 |  | > 100 |  | > 100 | 68.8 | 
6 | COC(=O)C1OC(SCCN)C(O)C(O)C1O (stereo not given) |  | > 100 |  |  |  | > 100 |  | > 100 |  | > 100 |  | > 100 |  | > 100 |  | > 100 |  | > 100 | > 100 | 
7 | COC(=O)c1ccc(N/C=C(/C#N)c2ccsc2)cc1 |  |  |  | 44.5 |  |  |  | > 100 |  | > 100 |  | 32.3 |  | 45.6 |  |  |  | 54.7 | 23.9 | 
8 | COc1ccc(-c2cncn2-c2ccc(-c3nc4cc(OC)c(OC)c(OC)c4s3)cc2)cc1N | 6.38 | > 100 |  |  | > 100 | > 100 | 4.69 | > 100 | > 100 | > 100 | > 100 | > 100 | 13.7 | > 100 | 9.44 | > 100 | 6.21 | > 100 | > 100 | 5.98
9 | COC(=O)CCC(=O)Nc1cc(C)ccc1C |  |  |  | > 100 |  |  |  | > 100 |  |  |  | > 100 |  | > 100 |  | > 100 |  | > 100 | > 100 | 
10 | C=CC(=O)OCCCS(=O)(=O)[O-].C=CC(=O)OCCCS(=O)(=O)[O-].NC1CCCCC1N.[Pt+4] |  |  | > 25 | > 25 |  |  | > 25 | > 25 | > 25 | > 25 | > 25 | > 25 | > 25 | > 25 | > 25 | > 25 | > 25 | > 25 | > 25 | > 25
11 | Clc1ccc2c(NCCNc3nc(N4CCCCC4)nc4ccccc34)ccnc2c1 | 3.24 | 12.9 | 2.22 | 6.26 |  |  |  |  | 2.68 | 10.1 | 1.72 | 3.42 | 1.86 | 3.52 | 2.13 | 6.84 | 1.34 | 3.33 | 3.72 | 1.81
12 | Nc1ncc(-c2ccc3ncnc(N4CCc5cc(F)c(Cl)cc54)c3c2)cc1C(F)(F)F | 1.8 | > 100 | 2.13 | > 100 |  |  | 1.39 | > 100 | 1.23 | > 100 |  |  | 2.04 | > 100 | 0.754 | > 100 | 1.95 | > 100 | 1.53 | 0.274
13 | CCCCCCCCCCCc1cc(=O)c2c(O)cccc2o1 |  |  |  | > 100 |  |  |  | > 100 |  | > 100 |  | > 100 |  | > 100 |  | > 100 |  | > 100 | > 100 | 
14 | N#CC1=C(N)Oc2c(ccc3cccnc23)C1c1ccccc1 (stereo not given) |  |  |  | > 100 | 4.88 | > 100 |  | > 46.3 |  | > 100 |  | 4.87 |  | > 75.5 |  | > 100 |  | > 100 | > 30.7 | 
15 | Cn1c(=O)c2[nH]c(CCS)nc2n(C)c1=O |  | > 100 |  |  |  | > 100 |  | > 100 |  | > 100 |  | > 100 |  | > 100 |  | > 100 |  | > 100 | > 100 | 
16 | COc1ccccc1NC(=O)C1=C(C)NC(C)=C(C(=O)Nc2ccccc2OC)C1c1ccc(C2C(C(=O)Nc3ccccc3OC)=C(C)NC(C)=C2C(=O)Nc2ccccc2OC)cc1 |  |  |  | 3.56 |  |  |  | 12.6 |  | 10.7 |  | 3.24 |  | 6.45 |  | 3.69 |  | 4.06 | 5.06 | 
17 | [N-]=[N+]=Nc1nnc(CCCCc2nnc(N=[N+]=[N-])o2)o1 |  |  |  | > 100 |  |  |  | > 100 |  | > 100 |  | > 100 |  | > 100 |  | > 100 |  | > 100 | > 100 | 
18 | O=CCC(O)C(O)C(O)CO (stereo not given) | > 100 | > 100 | > 100 | > 100 | > 100 | > 100 | > 100 | > 100 | > 100 | > 100 |  |  | > 100 | > 100 | > 100 | > 100 | > 100 | > 100 |  | 
19 | COc1cc2ccnc(-c3n[nH]c4cc(OC)c(OC)cc34)c2cc1OC |  |  |  | > 100 |  |  |  | > 100 |  | > 100 |  | > 100 |  | > 100 |  | > 100 |  | > 100 |  | 

— PubChem BioAssay (NCI)
